Tested on: 388556-164-R-J1-PDC complex spheroid viability
Assay: Anticancer human tumor 388556-164-R-J1-PDC patient-derived colon adenocarcinoma cell line growth inhibition [RAS]
Details: for IC50: curve of first compound; for viability, T/C: stronger effect = lower value
In short: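 Agents were tested in combination matrices in half-log decrements from a top concentration at or near clinical Cmax (10 microM if undetermined). Targets were multi-cell spheroids of tumour lines plus HUVEC and MSC stromal cells.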

[1] = second compound 0.00316 µM, first compound 0.0316 µM
[2] = second compound 0.00316 µM, first compound 0.1 µM
[3] = second compound 0.00316 µM, first compound 0.316 µM
[4] = second compound 0.00316 µM, first compound 1 µM
[5] = second compound 0.00316 µM, first compound 3.16 µM
[6] = second compound 0.00316 µM, first compound 10 µM
[7] = second compound 0.01 µM, first compound 0.0316 µM
[8] = second compound 0.01 µM, first compound 0.1 µM
[9] = second compound 0.01 µM, first compound 0.316 µM
[10] = second compound 0.01 µM, first compound 1 µM
[11] = second compound 0.01 µM, first compound 3.16 µM
[12] = second compound 0.01 µM, first compound 10 µM
[13] = second compound 0.0316 µM, first compound 0.0316 µM
[14] = second compound 0.0316 µM, first compound 0.1 µM
[15] = second compound 0.0316 µM, first compound 0.316 µM
[16] = second compound 0.0316 µM, first compound 1 µM
[17] = second compound 0.0316 µM, first compound 3.16 µM
[18] = second compound 0.0316 µM, first compound 10 µM
[19] = second compound 0.1 µM, first compound 0.0316 µM
[20] = second compound 0.1 µM, first compound 0.1 µM
[21] = second compound 0.1 µM, first compound 0.316 µM
[22] = second compound 0.1 µM, first compound 1 µM
[23] = second compound 0.1 µM, first compound 3.16 µM
[24] = second compound 0.1 µM, first compound 10 µM
[25] = second compound 0.316 µM, first compound 0.0316 µM
[26] = second compound 0.316 µM, first compound 0.1 µM
[27] = second compound 0.316 µM, first compound 0.316 µM
[28] = second compound 0.316 µM, first compound 1 µM
[29] = second compound 0.316 µM, first compound 3.16 µM
[30] = second compound 0.316 µM, first compound 10 µM
[31] = second compound 1 µM, first compound 0.0316 µM
[32] = second compound 1 µM, first compound 0.1 µM
[33] = second compound 1 µM, first compound 0.316 µM
[34] = second compound 1 µM, first compound 1 µM
[35] = second compound 1 µM, first compound 3.16 µM
[36] = second compound 1 µM, first compound 10 µM
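Also: spheroids exposed to compound for 7 days before readout.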
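For viability, T/C in this document: 100% = DMSO vehicle control luminescence.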

For `CC(=O)OC12COC1CC(O)C1(C)C(=O)C(O)C3=C(C)C(OC(=O)C(O)C(NC(=O)OC(C)(C)C)c4ccccc4)CC(O)(C(OC(=O)c4ccccc4)C21)C3(C)C` (centres undefined) + C=CC(=O)N1CCN(c2nc(OCC3CCCN3C)nc3c(F)c(-c4nc(N)cc(C)c4C(F)(F)F)c(Cl)cc23)C(C)C1, the IC50 (second compound 0.00316 µM) was > 10000 nM, the IC50 (second compound 0.01 µM) was > 10000 nM and the IC50 (second compound 0.0316 µM) was > 10000 nM. For the same compound, the IC50 (second compound 0.1 µM) was > 10000 nM, the IC50 (second compound 0.316 µM) was > 10000 nM and the IC50 (second compound 1 µM) was > 10000 nM. The viability, T/C [1] was 88.1%, the viability, T/C [2] was 80.7% and the viability, T/C [3] was 77%. For the same compound, the viability, T/C [4] was 75.7%, the viability, T/C [5] was 74.6% and the viability, T/C [6] was 71.2%. The viability, T/C [7] was 82.8%, the viability, T/C [8] was 78.8% and the viability, T/C [9] was 70.5%. The viability, T/C [10] was 80.3%, the viability, T/C [11] was 79.4% and the viability, T/C [12] was 71.8%. For the same compound, the viability, T/C [13] was 84.4%, the viability, T/C [14] was 83.4% and the viability, T/C [15] was 84.7%. For the same compound, the viability, T/C [16] was 76.9%, the viability, T/C [17] was 76% and the viability, T/C [18] was 71.3%. It also gave a viability, T/C [19] of 78.3%, a viability, T/C [20] of 69.5% and a viability, T/C [21] of 72.4%. It also gave a viability, T/C [22] of 74%, a viability, T/C [23] of 78.4% and a viability, T/C [24] of 73.2%. It also gave a viability, T/C [25] of 78.6%, a viability, T/C [26] of 81.4% and a viability, T/C [27] of 79.1%. It also gave a viability, T/C [28] of 74.5%, a viability, T/C [29] of 72.7% and a viability, T/C [30] of 76.6%. The viability, T/C [31] was 87.6%, the viability, T/C [32] was 79.3% and the viability, T/C [33] was 74.9%. For the same compound, the viability, T/C [34] was 82.8%, the viability, T/C [35] was 76% and the viability, T/C [36] was 70.5%.

In the case of `CCC(CC)c1cc(NC2CCC(N)C2)n2nccc2n1` (centres undefined) + C=CC(=O)N1CCN(c2nc(OCC3CCCN3C)nc3c(F)c(-c4nc(N)cc(C)c4C(F)(F)F)c(Cl)cc23)C(C)C1, the IC50 (second compound 0.00316 µM) is reported as 2730 nM, the IC50 (second compound 0.01 µM) is reported as 2700 nM and the IC50 (second compound 0.0316 µM) is reported as 2770 nM. The IC50 (second compound 0.1 µM) was 2470 nM, the IC50 (second compound 0.316 µM) was 2460 nM and the IC50 (second compound 1 µM) was 2340 nM. For the same compound, the viability, T/C [1] was 98.2%, the viability, T/C [2] was 98.6% and the viability, T/C [3] was 106%. For the same compound, the viability, T/C [4] was 93.9%, the viability, T/C [5] was 43.6% and the viability, T/C [6] was 29.6%. The viability, T/C [7] was 97.2%, the viability, T/C [8] was 109% and the viability, T/C [9] was 102%. It also gave a viability, T/C [10] of 96%, a viability, T/C [11] of 42.6% and a viability, T/C [12] of 27.8%. For the same compound, the viability, T/C [13] was 96%, the viability, T/C [14] was 104% and the viability, T/C [15] was 106%. For the same compound, the viability, T/C [16] was 101%, the viability, T/C [17] was 43.3% and the viability, T/C [18] was 29.9%. For the same compound, the viability, T/C [19] was 97.5%, the viability, T/C [20] was 95.9% and the viability, T/C [21] was 102%. It also gave a viability, T/C [22] of 98.2%, a viability, T/C [23] of 36.8% and a viability, T/C [24] of 26.5%. For the same compound, the viability, T/C [25] was 104%, the viability, T/C [26] was 112% and the viability, T/C [27] was 109%. It also gave a viability, T/C [28] of 105%, a viability, T/C [29] of 34.6% and a viability, T/C [30] of 28.5%. The viability, T/C [31] was 98.6%, the viability, T/C [32] was 100% and the viability, T/C [33] was 109%. The viability, T/C [34] was 111%, the viability, T/C [35] was 30.7% and the viability, T/C [36] was 27.6%.
